Data on 23 compounds can be found in patent US11873298B2, “Compounds and uses thereof” (JANSSEN PHARMACEUTICA NV, priority 2017, dated 2024).

In one assay the target is T1, SCD5 (Homo sapiens, UniProt Q86SK9).
T1 construct: host or cells: S. cerevisiae ole1Δ strain (W303 pdr1Δ pdr3Δ background), plasmid pRS316 with TDH3 promoter and CYC1 terminator
T1 sequence (Q86SK9 1-330): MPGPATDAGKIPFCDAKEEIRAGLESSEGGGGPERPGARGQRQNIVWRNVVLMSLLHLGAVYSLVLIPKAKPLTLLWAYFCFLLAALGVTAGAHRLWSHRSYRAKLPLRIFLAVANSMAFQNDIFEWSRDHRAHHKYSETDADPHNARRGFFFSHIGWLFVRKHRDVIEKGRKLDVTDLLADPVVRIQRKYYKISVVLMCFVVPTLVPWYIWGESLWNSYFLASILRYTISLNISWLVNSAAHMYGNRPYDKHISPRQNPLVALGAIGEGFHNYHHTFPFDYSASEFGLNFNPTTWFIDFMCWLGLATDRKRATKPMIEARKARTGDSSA
The experiment in a line: Growth inhibition of humanized yeast strain expressing SCD5 as sole desaturase. The class given is cell-based. In short, it runs like this: (§1)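 Yeast ole1Δ strain (W303 pdr1Δ pdr3Δ background) carrying plasmid-borne Ole1, SCD1 or SCD5 as sole desaturase was grown in uracil-lacking media, pre-cultured in raffinose for 6 h, then seeded in galactose medium with compound in DMSO. Growth was read as OD600 after 30° C. incubation: 24 h for Ole1, 40 h for SCD1/SCD5.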

In a further assay the target is T2, SCD1 (Homo sapiens, UniProt O00767).
T2 construct: host or cells: S. cerevisiae ole1Δ strain (W303 pdr1Δ pdr3Δ background), plasmid pRS316 with TDH3 promoter and CYC1 terminator
T2 sequence (O00767 1-359): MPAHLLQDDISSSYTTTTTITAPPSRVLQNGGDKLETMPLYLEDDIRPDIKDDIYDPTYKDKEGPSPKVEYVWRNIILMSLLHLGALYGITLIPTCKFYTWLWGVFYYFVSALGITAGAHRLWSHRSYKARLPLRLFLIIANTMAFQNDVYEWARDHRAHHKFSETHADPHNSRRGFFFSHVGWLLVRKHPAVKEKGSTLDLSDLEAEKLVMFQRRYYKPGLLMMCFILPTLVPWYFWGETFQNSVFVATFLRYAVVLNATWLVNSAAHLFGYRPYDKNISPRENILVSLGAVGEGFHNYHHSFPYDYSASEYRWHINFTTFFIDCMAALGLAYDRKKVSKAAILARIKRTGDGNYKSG
The experiment in a line: Growth inhibition of humanized yeast strain expressing SCD1 as sole desaturase. It is filed as cell-based. The method in brief: as §1

[1] abbreviates: humanized yeast strain expressing SCD5.
Where [2] appears, read: humanized yeast strain expressing SCD1.
[3] abbreviates: growth inhibition of humanized yeast strain expressing human SCD5.
Where [4] appears, read: growth inhibition of humanized yeast strain expressing human SCD1.

In general, IC50 refers to the concentration that inhibits the measured activity by half. A low value points to inhibition by little substance. With `COC(=O)N1CCC(c2noc(-c3ccnc(-c4cnn(C)c4)c3)n2)CC1` [Compound 1265], the IC50 against SCD5 (yeast strain expressing human SCD5 as sole desaturase, Table 8) worked out at 11 µM; on SCD1 (yeast strain expressing human SCD1 as sole desaturase, Table 8) it was 13.5 µM.

Consider `COC(=O)N1CCC(c2noc(-c3ccc(N4CCOCC4)cc3)n2)CC1` [Compound 1163], for which the IC50 at SCD5 (humanized yeast strain, 40 h) was over 45 µM; against SCD1 (humanized yeast strain, 40 h) it was over 45 µM.

For the compound `O=C(C1CCC1)N1CCC(c2noc(-c3cc(F)c4cnn(C5COC5)c4c3)n2)CC1` [Compound 1061], the IC50 is 0.01 µM against SCD5 (humanized yeast strain, 40 h) and over 45 µM against SCD1 (humanized yeast strain, 40 h).

As for `COC(=O)N1CCC(c2noc(-c3ccc4cnn(C5CCN(C)C5=O)c4c3)n2)CC1` (centres unmarked) [Compound 1101], the IC50 worked out at 16.6 µM on SCD5 (humanized yeast strain, 40 h) and 27.2 µM on SCD1 (humanized yeast strain, 40 h).

`CC(C)(C)OC(=O)N1CCC(c2noc(-c3ccc4cnn(C5CS(=O)(=O)C5)c4c3)n2)CC1` [Compound 990]: the IC50 is 0.01 µM against SCD5 (humanized yeast strain, 40 h) and over 45 µM at SCD1 (humanized yeast strain, 40 h).

Take `COC(=O)N1CCC(c2noc(-c3cccc(C4CCO4)c3)n2)CC1` (centres unmarked) [Compound 1191]: the half-maximal inhibitory concentration (IC50) was 1.36 µM against SCD5 (humanized yeast strain, 40 h) and over 45 µM against SCD1 (humanized yeast strain, 40 h).

In the case of `Cc1nn(C)c2cc(-c3noc(C4CCN(C(=O)CNC(=O)c5ccc(C#N)cc5)CC4(F)F)n3)ccc12` (centres unmarked) [Compound 601], the IC50 on SCD5 (setting [1]) was 5.69 µM; at SCD1 (setting [2]), over 45 µM.

For `CNC(=O)O[C@H]1CC[C@H](c2nc(-c3ccc4c(C)nn(C)c4c3)no2)CC1` [Compound 609], the IC50 against SCD5 (setting [3]) and on SCD1 (setting [4]) was over 45 µM each time.

For `O=C(N1CC(c2noc(-c3ccc4cnn(C5COC5)c4c3)n2)C1)C(F)(F)F` [Compound 954], the IC50 on SCD5 (humanized yeast strain, 40 h) was 2.86 µM; on SCD1 (humanized yeast strain, 40 h), over 45 µM.

With `CCC(=O)N1CCC(c2noc(-c3ccc4cnn(C5CCOC5)c4c3)n2)CC1` (centres unmarked) [Compound 975], the IC50 at SCD5 (humanized yeast strain, 40 h) was 0.01 µM; on SCD1 (humanized yeast strain, 40 h), over 45 µM.

On to `CC(C)(C)OC(=O)N1CCN(c2noc(-c3ccnc(OC4COC4)c3)n2)CC1` [Compound 977], for which the IC50 on SCD5 (humanized yeast strain, 40 h) is 5.94 µM; at SCD1 (humanized yeast strain, 40 h), over 45 µM.

On to `CC(C)n1ncc2ccc(-c3noc(C4CCN(C(=O)CNC(=O)OC(C)(C)C)CC4(F)F)n3)cc21` (centres unmarked) [Compound 525], for which the IC50 at SCD5 (setting [1]) and against SCD1 (setting [2]) was over 45 µM each time.

On to `O=C(N1CCC(c2noc(-c3ccc4cnn(C5COC5)c4c3)n2)CC1)C1(O)CC1` [Compound 903], for which the IC50 against SCD5 (humanized yeast strain, 40 h) is 0.01 µM; against SCD1 (humanized yeast strain, 40 h) it was over 45 µM.

`CC(C)(C)OC(=O)N1CCC(c2noc(-c3cc(F)c4cnn(C5CCOC5)c4c3)n2)CC1` (centres unmarked) [Compound 1075]: the IC50 on SCD5 (humanized yeast strain, 40 h) is 0.01 µM; against SCD1 (humanized yeast strain, 40 h), 4.4 µM.

On to `CC(C)n1ncc2ccc(-c3nc(C4CCN(C(=O)OC5(C)CC5)CC4)no3)cc21` [Compound 628], for which the figures for the IC50 at SCD5 (setting [3]) and at SCD1 (setting [4]) were 0.01 µM and over 45 µM, respectively.

In the case of `CC(C)N1C(=O)Cc2ccc(-c3noc(C4CCN(C(=O)OC5(C)CC5)CC4)n3)cc21` [Compound 610], the IC50 is 2.16 µM on SCD5 (setting [3]) and over 45 µM on SCD1 (setting [4]).

For the compound `CCC(=O)N1CCC(c2noc(-c3ccc4cnn([C@@H]5CCOC5)c4c3)n2)CC1` [Compound 1050], the IC50 against SCD5 (humanized yeast strain, 40 h) is 0.02 µM; against SCD1 (humanized yeast strain, 40 h) it was over 45 µM.

Regarding `CC(C)(C)OC(=O)N1CC=C(c2ccc(-c3ccc4cnn(C5COC5)c4c3)nc2)CC1` [Compound 1010], the IC50 on SCD5 (humanized yeast strain, 40 h) was 0.816 µM; against SCD1 (humanized yeast strain, 40 h) it was over 45 µM.

Turning to `CC(C)n1ncc2ccc(-c3noc(C4CCN(C(=O)c5ccc(Cl)cc5)CC4)n3)cc21` [Compound 363], on SCD5 (setting [1]), the half-maximal inhibitory concentration (IC50) is over 45 µM and the “SCD5 % Max Inhibition” value is recorded as 1.99%. The “SCD1 % Max Inhibition” value on SCD1 (setting [2]) is 64.44%.

`CC1(OC(=O)N2CCN(c3noc(-c4ccnc(NC5COC5)c4)n3)CC2)CC1` [Compound 1008]: the IC50 against SCD5 (humanized yeast strain, 40 h) is 2.02 µM; against SCD1 (humanized yeast strain, 40 h), over 45 µM.

For the compound `CC(C)(C)OC(=O)N1CCC(c2nc(-c3ccc4cn(C5CN(C(=O)OC(C)(C)C)C5)nc4c3)no2)CC1` [Compound 656], the IC50 against SCD5 (setting [3]) and against SCD1 (setting [4]) was over 45 µM throughout.

On to `CC(C)n1ncc2ccc(-c3noc(N4C[C@@H]5CN(C(=O)OC(C)(C)C)C[C@H]5C4)n3)cc21` [Compound 513], for which the IC50 on SCD5 (setting [1]) and at SCD1 (setting [2]) was over 45 µM in each case.

As to `CC(C)c1nccn2cc(-c3nc(C4CCN(C(=O)OC(C)(C)C)CC4)no3)cc12` [Compound 901], the half-inhibitory concentration (IC50) on SCD5 (humanized yeast strain, 40 h) is over 45 µM; against SCD1 (humanized yeast strain, 40 h) it was over 45 µM.
